Source: paper PMC11845477, “Exploring the principles behind antibiotics with limited resistance” (Nature Communications, 2025)

Legend:
[1] = test system: K. pneumoniae ATCC 10031 (SEN) and K. pneumoniae ATCC 700603 (MDR); experiment: Adaptive laboratory evolution (ALE), relative MIC of evolved lines; assay type: cell-based, Klebsiella pneumoniae
Outline: (§1)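 Ten parallel populations per antibiotic–ancestor pair were evolved in MHB at 37 °C, starting near 50% growth-inhibiting drug. Every 72 h they were passaged into 0.5–2.5× increasing concentrations, keeping the highest-drug well with OD600 > 0.2.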

[2] = test system: A. baumannii ATCC 17978 (SEN) and A. baumannii ATCC BAA-1605 (MDR); experiment: as above; assay type: cell-based, Acinetobacter baumannii
Outline: as §1

Compound: CN(C)c1cc(CNCC(C)(C)C)c(O)c2c1C[C@H]1C[C@H]3[C@H](N(C)C)C(O)=C(C(N)=O)C(=O)[C@@]3(O)C(O)=C1C2=O [Omadacycline]
- Relative MIC ([1]; KP-SEN (Klebsiella pneumoniae ATCC 10031), evolved line 1): 128
- Relative MIC (log10) ([1]; KP-SEN (Klebsiella pneumoniae ATCC 10031), evolved line 1 adapted to the named antibiotic): 2.107
- Relative MIC ([1]; KP-SEN (Klebsiella pneumoniae ATCC 10031), evolved line 2): 128
- Relative MIC (log10) ([1]; KP-SEN (Klebsiella pneumoniae ATCC 10031), evolved line 2 adapted to the named antibiotic): 2.107
- Relative MIC ([1]; KP-SEN (Klebsiella pneumoniae ATCC 10031), evolved line 3): 64
- Relative MIC ([1]; KP-SEN (Klebsiella pneumoniae ATCC 10031), evolved line 4): 64
- Relative MIC (log10) ([1]; KP-SEN (Klebsiella pneumoniae ATCC 10031), evolved line 5 adapted to the named antibiotic): 2.107
- Relative MIC ([1]; KP-SEN (Klebsiella pneumoniae ATCC 10031), evolved line 6): 128
- Relative MIC (log10) ([1]; KP-SEN (Klebsiella pneumoniae ATCC 10031), evolved line 6 adapted to the named antibiotic): 2.107
- Relative MIC ([1]; KP-SEN (Klebsiella pneumoniae ATCC 10031), evolved line 8): 64
- Relative MIC ([1]; KP-SEN (Klebsiella pneumoniae ATCC 10031), evolved line 9): 128
- Relative MIC (log10) ([1]; KP-SEN (Klebsiella pneumoniae ATCC 10031), evolved line 9 adapted to the named antibiotic): 2.107
- Relative MIC ([1]; KP-SEN (Klebsiella pneumoniae ATCC 10031), evolved line 10): 128
- Relative MIC ([1]; KP-SEN ATCC 10031, evolved line 1, evolved line vs ancestor): 128
- Relative MIC ([1]; KP-SEN ATCC 10031, evolved line 2, evolved line vs ancestor): 128
- Relative MIC ([1]; KP-SEN ATCC 10031, evolved line 3, evolved line vs ancestor): 64
- Relative MIC ([1]; KP-SEN ATCC 10031, evolved line 4, evolved line vs ancestor): 64
- Relative MIC ([1]; KP-SEN ATCC 10031, evolved line 5, evolved line vs ancestor): 128
- Relative MIC ([1]; KP-SEN ATCC 10031, evolved line 6, evolved line vs ancestor): 128
- Relative MIC ([1]; KP-SEN ATCC 10031, evolved line 7, evolved line vs ancestor): 32
- Relative MIC ([1]; KP-SEN ATCC 10031, evolved line 8, evolved line vs ancestor): 64
- Relative MIC ([1]; KP-SEN ATCC 10031, evolved line 9, evolved line vs ancestor): 128
- Relative MIC ([1]; KP-SEN ATCC 10031, evolved line 10, evolved line vs ancestor): 128
- Relative MIC ([1]; KP-SEN, Klebsiella pneumoniae ATCC 10031, evolved line 5): 128
- Relative MIC ([1]; KP-SEN, Klebsiella pneumoniae ATCC 10031, evolved line 7): 32
- Relative MIC ([2]; AB-SEN (Acinetobacter baumannii ATCC 17978), evolved line 1): 32
- Relative MIC (log10) ([2]; AB-SEN (Acinetobacter baumannii ATCC 17978), evolved line 1 adapted to the named antibiotic): 1.505
- Relative MIC ([2]; AB-SEN (Acinetobacter baumannii ATCC 17978), evolved line 2): 64
- Relative MIC ([2]; AB-SEN (Acinetobacter baumannii ATCC 17978), evolved line 3): 64
- Relative MIC (log10) ([2]; AB-SEN (Acinetobacter baumannii ATCC 17978), evolved line 3 adapted to the named antibiotic): 1.806
- Relative MIC ([2]; AB-SEN (Acinetobacter baumannii ATCC 17978), evolved line 4): 32
- Relative MIC ([2]; AB-SEN (Acinetobacter baumannii ATCC 17978), evolved line 5): 128
- Relative MIC ([2]; AB-SEN (Acinetobacter baumannii ATCC 17978), evolved line 6): 128
- Relative MIC (log10) ([2]; AB-SEN (Acinetobacter baumannii ATCC 17978), evolved line 6 adapted to the named antibiotic): 2.107
- Relative MIC (log10) ([2]; AB-SEN (Acinetobacter baumannii ATCC 17978), evolved line 7 adapted to the named antibiotic): 1.806
- Relative MIC ([2]; AB-SEN (Acinetobacter baumannii ATCC 17978), evolved line 8): 64
- Relative MIC (log10) ([2]; AB-SEN (Acinetobacter baumannii ATCC 17978), evolved line 8 adapted to the named antibiotic): 1.806
- Relative MIC ([2]; AB-SEN (Acinetobacter baumannii ATCC 17978), evolved line 9): 32
- Relative MIC ([2]; AB-SEN (Acinetobacter baumannii ATCC 17978), evolved line 10): 32
- Relative MIC ([2]; AB-SEN ATCC 17978, evolved line 1, evolved line vs ancestor): 32
- Relative MIC ([2]; AB-SEN ATCC 17978, evolved line 2, evolved line vs ancestor): 64
- Relative MIC ([2]; AB-SEN ATCC 17978, evolved line 3, evolved line vs ancestor): 64
- Relative MIC ([2]; AB-SEN ATCC 17978, evolved line 4, evolved line vs ancestor): 32
- Relative MIC ([2]; AB-SEN ATCC 17978, evolved line 5, evolved line vs ancestor): 128
- Relative MIC ([2]; AB-SEN ATCC 17978, evolved line 6, evolved line vs ancestor): 128
- Relative MIC ([2]; AB-SEN ATCC 17978, evolved line 7, evolved line vs ancestor): 64
- Relative MIC ([2]; AB-SEN ATCC 17978, evolved line 8, evolved line vs ancestor): 64
- Relative MIC ([2]; AB-SEN ATCC 17978, evolved line 9, evolved line vs ancestor): 32
- Relative MIC ([2]; AB-SEN ATCC 17978, evolved line 10, evolved line vs ancestor): 32
- Relative MIC ([2]; AB-SEN, Acinetobacter baumannii ATCC 17978, evolved line 7): 64

Compound: POL7306
- Relative MIC ([1]; ALE, Klebsiella pneumoniae ATCC 10031 (KP-SEN), evolved line 1): 1
- Relative MIC ([1]; ALE, Klebsiella pneumoniae ATCC 10031 (KP-SEN), evolved line 4): 32
- Relative MIC ([1]; ALE, Klebsiella pneumoniae ATCC 10031 (KP-SEN), evolved line 7): 1
- Relative MIC ([1]; ALE, Klebsiella pneumoniae ATCC 10031 (KP-SEN), evolved line 8): 32
- Relative MIC ([1]; ALE, Klebsiella pneumoniae ATCC 10031 (KP-SEN), evolved line 10): 64
- Relative MIC ([1]; ALE, Klebsiella pneumoniae ATCC 700603 (KP-MDR), evolved line 1): 16
- Relative MIC ([1]; ALE, Klebsiella pneumoniae ATCC 700603 (KP-MDR), evolved line 2): 256
- Relative MIC ([1]; ALE, Klebsiella pneumoniae ATCC 700603 (KP-MDR), evolved line 3): 256
- Relative MIC ([1]; ALE, Klebsiella pneumoniae ATCC 700603 (KP-MDR), evolved line 4): 256
- Relative MIC ([1]; ALE, Klebsiella pneumoniae ATCC 700603 (KP-MDR), evolved line 5): 256
- Relative MIC ([1]; ALE, Klebsiella pneumoniae ATCC 700603 (KP-MDR), evolved line 6): 256
- Relative MIC ([1]; ALE, Klebsiella pneumoniae ATCC 700603 (KP-MDR), evolved line 8): 256
- Relative MIC ([1]; ALE, Klebsiella pneumoniae ATCC 700603 (KP-MDR), evolved line 10): 16
- Relative MIC ([2]; ALE, Acinetobacter baumannii ATCC 17978 (AB-SEN), evolved line 1): 256
- Relative MIC ([2]; ALE, Acinetobacter baumannii ATCC 17978 (AB-SEN), evolved line 2): 32
- Relative MIC ([2]; ALE, Acinetobacter baumannii ATCC 17978 (AB-SEN), evolved line 3): 16
- Relative MIC ([2]; ALE, Acinetobacter baumannii ATCC 17978 (AB-SEN), evolved line 4): 2
- Relative MIC ([2]; ALE, Acinetobacter baumannii ATCC 17978 (AB-SEN), evolved line 6): 32
- Relative MIC ([2]; ALE, Acinetobacter baumannii ATCC 17978 (AB-SEN), evolved line 7): 2
- Relative MIC ([2]; ALE, Acinetobacter baumannii ATCC 17978 (AB-SEN), evolved line 8): 2
- Relative MIC ([2]; ALE, Acinetobacter baumannii ATCC 17978 (AB-SEN), evolved line 9): 256
- Relative MIC ([2]; ALE, Acinetobacter baumannii ATCC 17978 (AB-SEN), evolved line 10): 32
- Relative MIC ([2]; ALE, Acinetobacter baumannii ATCC BAA 1605 (AB-MDR), evolved line 1): 2
- Relative MIC ([2]; ALE, Acinetobacter baumannii ATCC BAA 1605 (AB-MDR), evolved line 2): 16
- Relative MIC ([2]; ALE, Acinetobacter baumannii ATCC BAA 1605 (AB-MDR), evolved line 3): 16
- Relative MIC ([2]; ALE, Acinetobacter baumannii ATCC BAA 1605 (AB-MDR), evolved line 4): 16
- Relative MIC ([2]; ALE, Acinetobacter baumannii ATCC BAA 1605 (AB-MDR), evolved line 5): 16
- Relative MIC ([2]; ALE, Acinetobacter baumannii ATCC BAA 1605 (AB-MDR), evolved line 6): 2
- Relative MIC ([2]; ALE, Acinetobacter baumannii ATCC BAA 1605 (AB-MDR), evolved line 7): 16
- Relative MIC ([2]; ALE, Acinetobacter baumannii ATCC BAA 1605 (AB-MDR), evolved line 8): 8
- Relative MIC ([2]; ALE, Acinetobacter baumannii ATCC BAA 1605 (AB-MDR), evolved line 9): 32
- Relative MIC ([2]; ALE, Acinetobacter baumannii ATCC BAA 1605 (AB-MDR), evolved line 10): 16
